{"source": "patent US20220411525A1", "about": "“BCMA AS A TARGET FOR T CELL REDIRECTING ANTIBODIES IN B CELL LYMPHOMAS” (Janssen Pharmaceutica NV, priority 2021, published 2022)", "key": {"primary CLL cells [1]": {"tested_on": "primary CLL cells", "experiment": "Soluble BCMA ELISA in supernatants of CLL cells", "type": "cell-based, human", "settings": "100 nM, 24-48 h", "method": "(§1) Primary CLL samples were stained for BCMA expression by flow cytometry and compared to isotype controls. […] As provided in FIG. 2A, CLL cells were cultured and basal levels of BCMA were assessed by flow cytometry and compared to isotype controls. (n=25). For FIG. 2B, CLL cells were treated for 24 or 48h with 0nM or 100 nM γ-secretase inhibitor and BCMA was assessed by flow cytometry. Values are represented as fold increase compared to medium control. (n=12-28). FIG. 2C provides basal levels of BCMA compared to isotype control among CLL patients with mutated or unmutated IgVH. (n=4-10). FIG. 2D illustrates the fold increase of BCMA after 24-48 h treatment with 100nM γ-secretase inhibitor compared to medium control among CLL patients with mutated or unmutated IgVH. (n=5-13). FIG. 2E provides the results of an assessment of BCMA mRNA relative to GAPDH control by qPCR after primary CLL samples were treated without or with 100 nM γ-secretase inhibitor for 24 h. (n=9). […] (n=4-12) The P value was calculated by Wilcoxon test (FIGS. 2A-2B), Mann Whitney test (FIGS. 2B, 2C, 2D) or paired t test (FIGS. 2E, F). […]\nsBCMA ELISA. […] After 24 or 48 h supernatants were harvested and stored at −20° C. soluble BCMA (sBCMA) in supernatants were measured by ELISA using antibody pairs for BCMA."}, "primary CLL cells [2]": {"tested_on": "primary CLL cells", "experiment": "BCMA level by flow cytometry on primary CLL cells after γ-secretase inhibition", "type": "cell-based, human", "settings": "100 nM", "method": "as §1, with “(n=4-10).” for “(n=4-10). FIG. 2D illustrates the fold increase of BCMA after 24-48 h treatment with 100nM γ-secretase inhibitor compared to medium control among CLL patients with mutated or unmutated IgVH. (n=5-13). FIG. 2E provides the results of an assessment of BCMA mRNA relative to GAPDH control by qPCR after primary CLL samples were treated without or with 100 nM γ-secretase inhibitor for 24 h. (n=9).”\nFlow cytometry. […] After antibody staining, samples were washed using PBA and acquired on BD FACS Canto or LSR Fortessa flow cytometer and analysed with FlowJo v10. To quantify number of cells using flow cytometry, 123count eBeads™ Counting Beads (Thermo Fisher Scientific) according to manufacturer's instructions. BCMA molecules per cell were determined by usage of PE Phycoerythrin Fluorescence Quantitation Kit (BD Biosciences).\nBCMA characterization by flow cytometry and quantitative polymerase chain reaction. […] After 24 or 48 h BCMA was detected by flow cytometry as described above. Relative expression was calculated compared to isotype controls. […]"}}}
{"smiles": "C[C@H](NC(=O)[C@@H](O)c1cc(F)cc(F)c1)C(=O)N[C@@H]1C(=O)N(C)c2ccccc2-c2ccccc21", "note": "[Ly411575]", "values": [{"measurement": "sBCMA levels in supernatants of CLL cells", "setting": "primary CLL cells [1]", "value": "marked decreases"}, {"measurement": "BCMA level on CLL cells", "setting": "primary CLL cells [2]; 24 h", "value": "small but significant upregulation of BCMA"}, {"measurement": "BCMA level on CLL cells", "setting": "primary CLL cells [2]; 48 h, compared to 24 h", "value": "further enhanced"}]}
